Legend:
Mushroom tyrosinase = Mushroom tyrosinase (Agaricus bisporus, UniProt O42713+Q00024+C7FF04+C7FF05); test: Inhibition of mushroom tyrosinase using tyrosine as substrate incubated for 20 mins followed by substrate addition and measured every 10 mins for 30 mins
[1] = Inhibition of Elastase (unknown origin) using N-methoxysuccinyl-Ala-Ala-Pro-Val-p-nitroanilide as substrate incubated for 20 mins followed by substrate addition and measured after 40 mins; parameters: species or system Homo sapiens
[2] = compound: COc1cc(C)c2c(=O)c3ccccc3oc2c1OC; test: Uncompetitive inhibition of Tyrosinase (unknown origin) assessed as Michaelis-Menten constant at 16 uM using tyrosine as substrate incubated for 20 mins followed by substrate addition and measured every 10 mins for 30 mins by Lineweaver-Burk plot analysis (reference value: […] +/- […] mM); conditions: Homo sapiens, time 50.0 min
[3] = compound: Cc1cc(O)c(O)c2oc3cc(O)ccc3c(=O)c12; test: Uncompetitive inhibition of Tyrosinase (unknown origin) assessed as maximal velocity at 3.30 uM using tyrosine as substrate incubated for 20 mins followed by substrate addition and measured every 10 mins for 30 mins by Lineweaver-Burk plot analysis (reference value: […] +/- […] /min); conditions: Homo sapiens; dose 3.3 µM, time 50.0 min
[4] = compound: COc1cc(C)c2c(=O)c3ccccc3oc2c1OC; test: Uncompetitive inhibition of Tyrosinase (unknown origin) assessed as Michaelis-Menten constant at 8 uM using tyrosine as substrate incubated for 20 mins followed by substrate addition and measured every 10 mins for 30 mins by Lineweaver-Burk plot analysis (reference value: […] +/- […] mM); conditions: Homo sapiens, time 50.0 min
[5] = compound: COc1cc(C)c2c(=O)c3ccccc3oc2c1OC; test: Uncompetitive inhibition of Tyrosinase (unknown origin) assessed as Michaelis-Menten constant at 4 uM using tyrosine as substrate incubated for 20 mins followed by substrate addition and measured every 10 mins for 30 mins by Lineweaver-Burk plot analysis (reference value: […] +/- […] mM); conditions: Homo sapiens, time 50.0 min
[6] = compound: Cc1cc(O)c(O)c2oc3cc(O)ccc3c(=O)c12; test: Uncompetitive inhibition of Tyrosinase (unknown origin) assessed as Michaelis-Menten constant at 13.2 uM using tyrosine as substrate incubated for 20 mins followed by substrate addition and measured every 10 mins for 30 mins by Lineweaver-Burk plot analysis (reference value: […] +/- […] mM); conditions: Homo sapiens, time 50.0 min
[7] = compound: COc1cc(C)c2c(=O)c3ccccc3oc2c1OC; test: Uncompetitive inhibition of Tyrosinase (unknown origin) assessed as maximal velocity at 16 uM using tyrosine as substrate incubated for 20 mins followed by substrate addition and measured every 10 mins for 30 mins by Lineweaver-Burk plot analysis (reference value: […] +/- […] /min); conditions: Homo sapiens, time 50.0 min
[8] = compound: Cc1cc(O)c(O)c2oc3cc(O)ccc3c(=O)c12; test: Uncompetitive inhibition of Tyrosinase (unknown origin) assessed as maximal velocity at 6.60 uM using tyrosine as substrate incubated for 20 mins followed by substrate addition and measured every 10 mins for 30 mins by Lineweaver-Burk plot analysis (reference value: […] +/- […] /min); conditions: Homo sapiens; dose 6.6 µM, time 50.0 min
[9] = compound: Cc1cc(O)c(O)c2oc3cc(O)ccc3c(=O)c12; test: Uncompetitive inhibition of Tyrosinase (unknown origin) assessed as Michaelis-Menten constant at 6.6 uM using tyrosine as substrate incubated for 20 mins followed by substrate addition and measured every 10 mins for 30 mins by Lineweaver-Burk plot analysis (reference value: […] +/- […] mM); conditions: Homo sapiens, time 50.0 min
[10] = compound: Cc1cc(O)c(O)c2oc3cc(O)ccc3c(=O)c12; test: Uncompetitive inhibition of Tyrosinase (unknown origin) assessed as maximal velocity at 1.65 uM using tyrosine as substrate incubated for 20 mins followed by substrate addition and measured every 10 mins for 30 mins by Lineweaver-Burk plot analysis (reference value: […] +/- […] /min); conditions: Homo sapiens, time 50.0 min
[11] = compound: Cc1cc(O)c(O)c2oc3cc(O)ccc3c(=O)c12; test: Uncompetitive inhibition of Tyrosinase (unknown origin) assessed as Michaelis-Menten constant at 3.3 uM using tyrosine as substrate incubated for 20 mins followed by substrate addition and measured every 10 mins for 30 mins by Lineweaver-Burk plot analysis (reference value: […] +/- […] mM); conditions: Homo sapiens, time 50.0 min
[12] = compound: Cc1cc(O)c(O)c2oc3cc(O)ccc3c(=O)c12; test: Uncompetitive inhibition of Tyrosinase (unknown origin) assessed as maximal velocity at 13.2 uM using tyrosine as substrate incubated for 20 mins followed by substrate addition and measured every 10 mins for 30 mins by Lineweaver-Burk plot analysis (reference value: […] +/- […] /min); conditions: Homo sapiens, time 50.0 min
[13] = compound: COc1cc(C)c2c(=O)c3ccccc3oc2c1OC; test: Uncompetitive inhibition of Tyrosinase (unknown origin) assessed as maximal velocity at 8 uM using tyrosine as substrate incubated for 20 mins followed by substrate addition and measured every 10 mins for 30 mins by Lineweaver-Burk plot analysis (reference value: […] +/- […] /min); conditions: Homo sapiens, time 50.0 min
[14] = compound: COc1cc(C)c2c(=O)c3ccccc3oc2c1OC; test: Uncompetitive inhibition of Tyrosinase (unknown origin) assessed as maximal velocity at 2 uM using tyrosine as substrate incubated for 20 mins followed by substrate addition and measured every 10 mins for 30 mins by Lineweaver-Burk plot analysis (reference value: […] +/- […] /min); conditions: Homo sapiens, time 50.0 min
[15] = compound: COc1cc(C)c2c(=O)c3ccccc3oc2c1OC; test: Uncompetitive inhibition of Tyrosinase (unknown origin) assessed as Michaelis-Menten constant at 2 uM using tyrosine as substrate incubated for 20 mins followed by substrate addition and measured every 10 mins for 30 mins by Lineweaver-Burk plot analysis (reference value: […] +/- […] mM); conditions: Homo sapiens, time 50.0 min
[16] = compound: Cc1cc(O)c(O)c2oc3cc(O)ccc3c(=O)c12; test: Uncompetitive inhibition of Tyrosinase (unknown origin) assessed as Michaelis-Menten constant at 1.65 uM using tyrosine as substrate incubated for 20 mins followed by substrate addition and measured every 10 mins for 30 mins by Lineweaver-Burk plot analysis (reference value: […] +/- […] mM); conditions: Homo sapiens, time 50.0 min
[17] = compound: COc1cc(C)c2c(=O)c3ccccc3oc2c1OC; test: Uncompetitive inhibition of Tyrosinase (unknown origin) assessed as maximal velocity at 4 uM using tyrosine as substrate incubated for 20 mins followed by substrate addition and measured every 10 mins for 30 mins by Lineweaver-Burk plot analysis (reference value: […] +/- […] /min); conditions: Homo sapiens, time 50.0 min

IC50 (Mushroom tyrosinase) [µM]	Molecule	other results
3.16	COc1cc(C=O)c2c(=O)c3ccc(O)cc3oc2c1OC	
3.01	COc1c(O)cc2oc3ccccc3c(=O)c2c1O	
3.28	Cc1cc(O)c(O)c2oc3cc(O)ccc3c(=O)c12	
4.42	O=c1c2ccc(O)cc2oc2cc(O)ccc12	IC50 [1]: 91.8 µM
5.7	O=c1c2ccccc2oc2cc(O)c(O)cc12	
8.29	COc1cc2oc3ccccc3c(=O)c2cc1OC	
4.02	COc1ccc2oc3ccccc3c(=O)c2c1OC	
7.8	O=c1c2ccccc2oc2ccc(O)c(O)c12	
5.14	COc1cccc2oc3ccccc3c(=O)c12	
3.81	COc1c(O)ccc2c(=O)c3ccccc3oc12	
1.9	COc1ccc2c(=O)c3c(C)c(Cl)c(OC)c(OC)c3oc2c1	
5.33	COc1cccc2c(=O)c3ccccc3oc12	
8.47	COc1ccc2oc3ccccc3c(=O)c2c1	
4.52	O=c1c2cc(O)ccc2oc2cccc(O)c12	
9.26	O=c1c2ccccc2oc2cc(O)ccc12	
89.37	O=Cc1cc(O)c(O)c2oc3ccccc3c(=O)c12	
8.46	O=c1c2ccccc2oc2c(O)cccc12	
8.93	Cc1cc(O)c(O)c2oc3ccccc3c(=O)c12	
3.37	COc1cc(C(Br)Br)c2c(=O)c3ccccc3oc2c1OC	
5.14	COc1ccc2c(=O)c3ccccc3oc2c1	
	H-MAAPVCK-OH	IC50 [1]: 0.26 µM
5.12	O=c1c2ccccc2oc2c(O)c(O)ccc12 [3,4-DIHYDROXYXANTHONE]	
2	COc1cc(C)c2c(=O)c3ccccc3oc2c1OC	
5.12	COc1ccc2c(=O)c3ccccc3oc2c1OC	
29.13	COc1cc(C=O)c2c(=O)c3ccccc3oc2c1OC	
5.6	O=c1c2ccccc2oc2ccc(O)cc12	
5.2	COc1ccc2c(=O)c3ccccc3oc2c1O	
5.57	COc1ccc2c(=O)c3c(C)c(Br)c(OC)c(OC)c3oc2c1	
2.24	COc1ccc2c(=O)c3c(C)cc(OC)c(OC)c3oc2c1	
	Tyrosinase (Homo sapiens), P14679 (protein) MLLAVLYCLLWSFQTSAGHFPRACVSSKNLMEKECCPPWSGDRSPCGQLSGRGSCQNILLSNAPLGPQFPFTGVDDRESWPSVFYNRTCQCSGNFMGFNCGNCKFGFWGPNCTERRLLVRRNIFDLSAPEKDKFFAYLTLAKHTISSDYVIPIGTYGQMKNGSTPMFNDINIYDLFVWMHYYVSMDALLGGSEIWRDIDFAHEAPAFLPWHRLFLLRWEQEIQKLTGDENFTIPYWDWRDAEKCDICTDEYMGGQHPTNPNLLSPASFFSSWQIVCSRLEEYNSHQSLCNGTPEGPLRRNPGNHDKSRTPRLPSSADVEFCLSLTQYESGSMDKAANFSFRNTLEGFASPLTGIADASQSSMHNALHIYMNGTMSQVQGSANDPIFLLHHAFVDSIFEQWLRRHRPLQEVYPEANAPIGHNRESYMVPFIPLYRNGDFFISSKDLGYDYSYLQDSDPDSFQDYIKSYLEQASRIWSWLLGAAMVGAVLTALLAGLVSLLCRHKRKQLPEEKQPLLMEKEDYHSLYQSHL	Km [2]: 26 µM; Vmax [3]: 0.0035 min⁻¹; Km [4]: 27 µM; Km [5]: 41 µM; Km [6]: 28 µM; Vmax [7]: 0.0019 min⁻¹; Vmax [8]: 0.0032 min⁻¹; Km [9]: 46 µM; Vmax [10]: 0.0037 min⁻¹; Km [11]: 51 µM; Vmax [12]: 0.0028 min⁻¹; Vmax [13]: 0.0025 min⁻¹; Vmax [14]: 0.0036 min⁻¹; Km [15]: 53 µM; Km [16]: 63 µM; Vmax [17]: 0.0031 min⁻¹

Molecule	IC50 (Mushroom tyrosinase) [µM]	other results
O=c1c2ccccc2oc2ccccc12 [XANTHONE]	8.84	
